Data reported in PubChem BioAssay (NCI).
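Each compound was tested at five concentrations against cells in 96-well plates for 48 hours. The concentration for full growth arrest is given as TGI.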

Assays:
Assay in all cases: DTP human tumour cell line panel, 48 h
[1] = tested on: CAKI-1 renal
[2] = tested on: HS 578T breast
[3] = tested on: COLO 205 colon
[4] = tested on: NCI-H23 lung
[5] = tested on: TK-10 renal
[6] = tested on: MDA-N
[7] = tested on: EKVX NSCLC
[8] = tested on: SNB-75 CNS
[9] = tested on: SW-620 colon
[10] = tested on: MDA-MB-231 breast

Structure (SMILES) | TGI [1] [µM] | TGI [2] [µM] | TGI [3] [µM] | TGI [4] [µM] | TGI [5] [µM] | TGI [6] [µM] | TGI [7] [µM] | TGI [8] [µM] | TGI [9] [µM] | TGI [10] [µM]
O=C1C(N2CCCC2)=CC(=O)c2c(O)c(N3CCCC3)c(Cl)c(O)c21 | > 10 | > 10 | > 10 | > 10 | > 10 | > 10 | > 10 | > 10 | > 10 | > 10
Nc1nc(N)c2ncn(CC3CCC(CO)C3)c2n1 (centres undefined) | > 100 | > 100 | > 100 | – | > 100 | > 100 | > 100 | > 100 | > 100 | > 100
OCC1OC(c2scc3c(=S)nc[nH]c23)C(O)C1O (centres undefined) | 63.3 | 6.52 | 33.5 | 92.6 | > 100 | > 100 | > 100 | 30.5 | > 93.1 | > 69.2
Cc1[nH]c2ncn(/N=C/c3ccccc3O)c(=N)c2c1Cc1ccccc1 | > 100 | > 100 | > 100 | > 100 | > 100 | 93.8 | > 100 | > 100 | > 100 | > 100
O=c1[nH]c(=O)n(C2CC(O)C(CO)O2)cc1I (centres undefined) | > 100 | > 100 | > 100 | > 100 | > 100 | > 100 | > 100 | > 100 | > 100 | > 100
